Results reported in patent US7915009B2, “Activation and inhibition of the immune system” (The Mathilda and Terence Kennedy Institute of Rheumatology …, priority 1999, dated 2011).
“Also recorded” adds a separate entry of the source. Where a SMILES comes first, the peptide text is derived from it. The star is where a group is joined. Cbz = O=C(OCc1ccccc1)*; OtBu = CC(C)(C)O*

Key:
[1] = system: mature DC; experiment: Surface antigen expression on PSI-treated DC (FACScan); assay type: cell-based, human
Method: FIG. 3. Effect of PSI on the expression of surface antigens was studied using monoclonal antibodies, HLA-DR, CD86 (PE conjugated); Pharmingen, San Diego, Calif.). on day 6 after PSI treatment, populations of untreated (green line), PSI (0.1 μM) treated (blue dotted line), PSI (1 μM) treated (red dotted line) were phenotyped with the MoAbs listed above and analysed on FACScan (Becton Dickinson).
(§1) For FACS staining, cells were first harvested. For adherent cells where surface receptors need to be intact, a warm 2% EDTA in PBS solution was used for 20 min at 37° C. After cells were in solution, they were washed once and then resuspended in ice-cold FACS washing buffer. All subsequent incubations were performed at 4° C. For each analysis, 5×10^5 cells were incubated with the relevant antigen-specific antibody or isotype control for 30 min and then washed twice with FACS washing buffer. Cells were then examined by flow cytometry. cells were ready for analysis on a FACScan flow cytometer (Becton and Dickinson) by using the CellQuest (Becton Dickinson). Directly conjugated monoclonal antibodies to HLA-DR, HLA-A,B,C, CD80, CD86, CD3, CD14 and CD25 were purchased by Pharmingen, San Diego, USA).

[2] = system: NFκB; details: previously shown by the inventors; cited from earlier work
[3] = system: allo-lymphocytes; experiment: Surface antigens on allo-lymphocytes cultured with PSI-treated DC (FACScan); assay type: cell-based, human
Method: FIG. 7. […] Lymphocytes were cultured for 6 days as the same conditions with allo-MLR experiment using vehicle treated DC (green line), or PSI (1 μM) treated DC (red line). Each lymphocytes were phenotyped with MoAbs, CD3, CD25 (PE conjugated; Pharmingen), (CD54) (PE conjugated; Serotec), CD50 (FITC conjugated; Serotec) and analysed by FACScan.
as §1

[4] = system: mature DC; experiment: Cell viability of DC treated with PSI, propidium iodide staining (FACS); assay type: cell-based, human; details: PSI for 4 h, analysed 6 days after treatment
Method: FIG. 1. Cell viability of DC treated with PSI. Mature DC was either left untreated, or treated with various doses of PSI for 4 h. After wash, cells were cultured in RPMI 1640 supplemented as described without monocyte condition medium. 6 days after treatment, cells were resuspended in PBS containing 10 μg/ml. Of propidium iodide PI and analysed on FACS scan.
(§2) PSI is an inhibitor of proteosome activity and as such is capable of inhibiting induced IκB degradation and subsequent NF-κB activation. We used PSI to examine the function of NFκB in dendritic cell (DC) activity particularly in relation to antigen presentation and activation of T cells. We have previously shown that PSI is capable of inhibiting NFκB activation at concentrations up to 1 μM. To test the effect of PSI on DC viability mature DC were incubated with concentrations of PSI, ranging from 0.1 μM to 5 μM. […] To assess the role of NFκB in DC function, mature DC were incubated with 0.3 μM, 0.5 μM or 1 μM PSI for […] and the cells washed. As PSI is an activated peptide that binds irreversibly to the proteosomes, the function of the DC can be assessed over the 6 day period of the MLR despite the short period of drug exposure.

[5] = system: allo-lymphocytes; experiment: Re-stimulation of allo-lymphocytes pre-cultured with PSI-treated DC; assay type: cell-based, human
Method: FIG. 6. Impaired response of allo-lymphocytes pre-cultured with PSI treated or non-treated DC. Lymphocytes were co-cultured with 1/10 number of PSI treated (●, ▴) or non-treated DC (∘,Δ). After 2 days, each DC were removed by CD83, CD86 coated plate. Lymphocytes were cultured for another 4 days using vehicle treated DC (∘,●), or PSI (1 μM) treated DC (Δ,▴). Proliferation was determined by ^3H-TdR uptake assay. (Each point represents mean+/−SEM from three separate experiments).
(§3) A means of detecting whether PSI-DC were generating inhibitory effects is to culture T cells with a mixture of PSI treated and untreated DC. […] Next we investigated whether exposure to PSI-DC would induce long term unresponsiveness in the T cells. T cells were exposed to normal or PSI-DC as previously described after which the T cells were collected and were treated with a DC for a second time and the proliferative response measured (FIG. 6). […] This would indicate that the effects of exposure to PSI-DC are prolonged and the T cells acquire a non-responsive or anergic state.
Further questions as to the mechanism of the lack of the T cell proliferative response were addressed. It could simply be due to lack of immunogenicity of the DC, or alternatively it could be due to the induction of a form of immunological tolerance or of immune regulation. The mechanism was analysed further by coculture experiments, adding PSI treated DC to untreated DC, and analysing the effect of the mixture on unprimed T cells in the MLR. […] Similar effects have been reported in a variety of tolerance models Zanders et al (1983) Nature 303, 625-627; Zanders et al (1985) J. Immunol. 15, 302-305; Park et al (1997) Eur. J. Immunol. 15, 302-305; and Waldmann & Cubbold (1998) Ann. Rev. Immunol. 16, 619-644 and so we asked whether PSI treated DC induced immunological tolerance. This was assessed by first exposing allogeneic T cells to PSI treated DC for 2 days, and then removing them, by panning with anti CD83 and anti CD86. […]

[6] = system: mature DC; experiment: Cytokine production of DC treated with PSI (ELISA); assay type: cell-based, human; details: PSI 1 μM
Method: FIG. 9. Cytokine productions of DC treated with vehicle or PSI. Mature DC was treated with vehicle or PSI (1 μM) as described above. Each DC and allo-lymphocytes were plated at 2×10^5 cells per well on a 96 well plate and stimulated with PMA (10 nM) or left unstimulated for 48 hr. Supernatants were analysed for IL-6, IL-8, IL-12 and TNFα by ELISA.
(§4) Cells were pre-treated with vehicle or 1 μM of PSI for 4 h, or infected with adenoviral vectors for 2 h. PSI-treated DC were then directly used in experiments whereas infected cells were further cultured for 2 days to allow overexpression of the relevant protein to occur. 24 h after stimulation of the cells, culture supernatants were collected and kept frozen. Cytokine levels in cell culture supernatants were measured by standard 2 or 3 layer sandwich ELISA techniques using specific monoclonal and polyclonal antibodies for TNFα, IL-4, IL-6, IL-8, IL-12 and IFNγ. Antibody pairs and standards for these assays have been purchased from Pharmingen, with the exception of IL-12 reagents that were gifted from the Genetics Institute (Boston, USA).

[7] = system: mature DC; experiment: Allogeneic MLR with PSI-treated DC, 3H-TdR uptake; assay type: cell-based, human; details: day 6
Method: FIG. 2. Immunostimulatory capacity of DC treated with the proteosome inhibitor Cbz-Ile-Glu(O-tert-bytyl)-Ala-leucinal (PSI). Mature DC was treated with PSI (0.1 μM: ▴), (0.5 μM: ▪), (1, μM: ●) or without PSI (∘) for 4 h. After wash, different numbers of each category of DC and […] of allo-lymphocytes were plated on a 96 well plate. Proliferation was determined at day 6 using ^3H-TdR uptake assay. (Each point represents mean+/−SEM from five separate experiments).
To assay the immunostimulatory capacity of non-irradiated or irradiated (3000 rad from a ^137Cs source) DC, uninfected, adenovirus-infected, LPS-treated or monocyte-conditioned medium-treated DC were cultured in graded doses with 1×10^5 of allogeneic elutriated T cells in quadruplicate in a 96-well flat-bottom microtiter plate (Falcon). Proliferation was measured on day 5 by thymidine incorporation after a 16 h pulse with [^3H] thymidine (0.5 μCi/well; Amersham Life Science, UK).
as §2

[8] = system: allo-lymphocytes; experiment: Cytokine production of allo-lymphocytes co-cultured with PSI-treated DC (ELISA); assay type: cell-based, human
Method: FIG. 8. Cytokine production of allo-lymphocytes co-cultured with vehicle treated or PSI treated DC. Mature DC was treated with vehicle or PSI (1 μM) as described above. Allo-lymphocytes and each DC were plated at 2×10^5 cells per well on a 96 well plate and stimulated with PMA (10 nM) or left unstimulated for […].
as §4

[9] = system: allo-lymphocytes; experiment: Allo-MLR with mixtures of PSI-treated and vehicle-treated DC; assay type: cell-based, human; details: judged from slope of proliferative response curves, PSI 1 μM
Method: FIG. 5. PSI pre-treated DC inhibit the growing ability of lymphocytes in allo-MLR. Mature DC was treated with PSI as described above. After washing, each DC was mixed to make different compositions: vehicle treated DC only (∘), ¼ number of PSI treated DC mixed with ¾ vehicle treated DC (●), ⅛ number of PSI treated DC mixed with […] vehicle treated DC (▪), or PSI treated DC only (▴). Graded number of each mixture and 10^5 cells of allo-lymphocytes were plated on a 96 well plate. Proliferation was determined at day 6 by ^3H-TdR uptake assay.
as §3

[10] = 1 μM PSI, 6 days after treatment
[11] = 6 days with PSI (1 μM) treated DC

CC[C@H](C)[C@H](NC(=O)OCc1ccccc1)C(=O)N[C@@H](CCC(=O)OC(C)(C)C)C(=O)N[C@@H](C)C(=O)N[C@H](C=O)CC(C)C [PSI, Cbz-Ile-Glu(O-tert-bytyl)-Ala-leucinal] (Cbz-IE(OtBu)AL-aldehyde)
CD86 expression on DC [1, 10]: reduced, to virtually background levels; also recorded: marked reduction
HLA-DR expression on DC [1, 10]: major reduction; also recorded: marked reduction
HLA-DR expression on DC ([1]; 0.1μ PSI, 6 days after treatment): minimal effect
CD80 expression on DC ([1]; PSI-treated DC): downregulation
concentrations at which PSI inhibits NFκB activation [2]: up to 1 μM
yields of T cells after culture with PSI treated DC ([3]; 6 days culture): lower
CD3 expression on T lymphocytes [3, 11]: reduced expression
CD11a (LFA-1) expression on T lymphocytes [3, 11]: only marginally reduced; also recorded: some reduction
CD25 expression on T lymphocytes [3, 11]: virtually abolished
CD54 (ICAM-1) expression on T lymphocytes [3, 11]: reduced to a degree similar to CD3; also recorded: some reduction
PSI concentrations showing some toxicity (propidium iodide staining) [4]: > 5 µM
response of T cells stimulated with PSI-DC prior to normal DC ([5]; 2 days PSI-DC, then 4 days normal DC): unable to respond; also recorded: lack of response
response of T cells exposed to PSI-DC on the second round after normal DC ([5]; PSI 1 μM): failed to proliferate
response of T cells to two rounds of PSI-DC ([5]; PSI 1 μM): did not respond
IL-6 expression from PSI-DC during the MLR [6]: to a lesser extent, IL-6 expression was inhibited; also recorded: not changed
IL-8 production from PSI-DC during the MLR [6]: unaffected; also recorded: not changed
IL-12 production by PSI treated DC [6]: Reductions
TNF expression from PSI-DC during the MLR [6]: inhibited; also recorded: Reductions
T cell proliferation in allogeneic MLR ([7]; DC pretreated with PSI 0.1 μM): no detectable effect
T cell proliferation in allogeneic MLR ([7]; DC pretreated with PSI 0.5 μM): failure of the T cells to proliferate
T cell proliferation in allogeneic MLR ([7]; DC pretreated with PSI 1 μM): failure of the T cells to proliferate
IFNγ production by T cells in response to PSI-DC ([8]; PSI 1 μM): not produced
IL-2 production by T cells in response to PSI-DC ([8]; PSI 1 μM): not produced
IL-4 production by T cells in response to PSI-DC ([8]; PSI 1 μM): unaffected; also recorded: not changed
inhibition of IFNγ production of T cells exposed to PSI treated DC ([8]; PSI treated DC): more than 90%
inhibition of IL-2 production of T cells exposed to PSI treated DC ([8]; PSI treated DC): more than 90%
reduction of proliferative response by ⅛ or ¼ PSI-DC mixed with untreated DC [9]: 3-5 fold
